Assay results as given in US11733161B2, “Method of determining concentration of subject based on fraction bound measurement” (Korea Advanced Institute of Science and Technology, priority 2019, dated 2023).
pKd: −log10 of the molar value. Where two headings read alike, the source gives them in different places.

Assay: real-time WGM (SRSN) resonator measurement of the streptavidin-biotin interaction, Langmuir model analysis
Format: binding
Conditions: for association rate: fit of Equation 7
Description: An interaction between streptavidin and biotin may be measured. […] Prior to experiments, the SRSN resonator may be pre-processed using biotin. When streptavidin of a DPBS flows into a fluid channel, streptavidin starts to attach biotin on a surface of the optical active resonator. Streptavidin that has closely attached biotin on the surface of the resonator may increase the length of an optical path of a resonance mode. Accordingly, a resonance movement may occur because the resonance state of the optical active resonator is changed.
A beam of a 457.9 nm wavelength argon laser 730 may be concentrated on the top of an SRSN resonator 710 through the PDMS wall of a micro microfluidic channel 720. The laser intensity of a focal plane is 20 W/cm^2 and may obtain strong PL emission including a characteristic cavity mode profile by stimulating silicon nano-clusters. The PL emission is collected through the side wall of the microfluidic channel 720 by an objective lens 750 (numerical aperture: 0.15). In this case, a transverse magnetic (TM) polarization component may be selectively captured by a polarity bond. […] The TM mode may be selectively measured as a cavity TM mode because the TM mode has a slot structure and can be firmly fixed compared to a TE mode. In this case, a beam splitter 740 may be configured between the argon laser 730 and the objective lens 750 and between the objective lens 750 and a CCD camera 760. A separate objective lens, a polarizer 770 and the spectrometer 780 may be configured for measurement.
The PL spectrum is measured after the state of a frequency movement is a saturation state.
In order to additionally research the developed detection device and to analyze the influence of the nano-slot structure on molecule dynamics, a time-excessive operation of a frequency movement caused by an interaction was measured. […] Such a time shift of the frequency movement may be understood based on the Langmuir model. This is commonly used to analyze the kinetics of a surface bonding reaction in a system in which a ligand has been fixed to a firm surface. A fraction proportional to a bio sensor signal may be defined as the number of ligands and analysis complexes based on the Langmuir model, and may be divided by a total number of ligands represent in the following equation in a connection step.
[formula] in the saturation state. In FIG. 10A, a solid line indicates a suitable curve of Equation 7 for measured data points. In this curve, values of kon^obs and fbeq(c) can be obtained. Kd, kon and koff can be derived by substituting the two values with Equation 8 and Equation 9 and solving both the equations at the same time.

pKd (streptavidin-biotin complex, saturation state, Hill model fit (FIG. 10B), read-out: Kd) | pKd (streptavidin-biotin complex, read-out: separation constant) | Substance | frequency movement (1 mg/mL, flowed 35 minutes over the biotin-processed resonator, control experiment) | peak shift (streptavidin 144 nM, saturation state (FIG. 9B)) | association rate (streptavidin concentration 9 nM in DPBS) | association rate (streptavidin concentration 36 nM in DPBS) | association rate (streptavidin concentration 54 nM in DPBS) | association rate (streptavidin concentration 90 nM in DPBS) | connection ratio / association rate (streptavidin-biotin complex, real-time bonding, Langmuir model) | koff (streptavidin-biotin complex, saturation state (FIG. 10B))
– | – | Bovine Serum Albumin [BSA] | 0.25 nm | – | – | – | – | – | – | –
6.42 | 6.42 | streptavidin | – | 1.72 nm | 12000 M⁻¹ s⁻¹ | 4200 M⁻¹ s⁻¹ | 3200 M⁻¹ s⁻¹ | 6400 M⁻¹ s⁻¹ | 0.0003 M⁻¹ s⁻¹ | 0.014 s⁻¹
